Laboratory results reported in patent publication EP2987533B1, “7-substituted piperazin-1-yl fluoroquinolone compounds, their use in the treatment of cancer, pharmaceutical compositions and a method for preparation” (priority 2014, dated 2016).

Key:
Assay in all cases: NCI five-dose SRB growth assay
Assay type in all cases: cell-based
CCRF-CEM = conditions: Homo sapiens; CCRF-CEM (Leukemia), 48 h
HL-60(TB) = conditions: Homo sapiens; HL-60(TB) (Leukemia), 48 h
MOLT-4 = conditions: Homo sapiens; MOLT-4 (Leukemia), 48 h
PRMI-8226 = conditions: Homo sapiens; PRMI-8226 (Leukemia), 48 h
A549/ATCC = conditions: Homo sapiens; A549/ATCC (Non-Small Cell Lung Cancer), 48 h
HOP-62 = conditions: Homo sapiens; HOP-62 (Non-Small Cell Lung Cancer), 48 h
NCI-H226 = conditions: Homo sapiens; NCI-H226 (Non-Small Cell Lung Cancer), 48 h
HOP-92 = conditions: Homo sapiens; HOP-92 (Non-Small Cell Lung Cancer), 48 h
NCI-H23 = conditions: Homo sapiens; NCI-H23 (Non-Small Cell Lung Cancer), 48 h
NCI-H322M = conditions: Homo sapiens; NCI-H322M (Non-Small Cell Lung Cancer), 48 h
NCI-H460 = conditions: Homo sapiens; NCI-H460 (Non-Small Cell Lung Cancer), 48 h
NCI-H522 = conditions: Homo sapiens; NCI-H522 (Non-Small Cell Lung Cancer), 48 h
COLO 205 = conditions: Homo sapiens; COLO 205 (Colon Cancer), 48 h
HCC-2998 = conditions: Homo sapiens; HCC-2998 (Colon Cancer), 48 h
HCT-116 = conditions: Homo sapiens; HCT-116 (Colon Cancer), 48 h
HT29 = conditions: Homo sapiens, HT-29; HT29 (Colon Cancer), 48 h
SF-268 = conditions: Homo sapiens; SF-268 (CNS Cancer), 48 h
SNB-19 = conditions: Homo sapiens; SNB-19 (CNS Cancer), 48 h
U251 = conditions: Homo sapiens, U-251; U251 (CNS Cancer), 48 h
LOX IMVI = conditions: Homo sapiens; LOX IMVI (Melanoma), 48 h
MALME-3M = conditions: Homo sapiens; MALME-3M (Melanoma), 48 h
MDA-MB-435 = conditions: Homo sapiens; MDA-MB-435 (Melanoma), 48 h
SK-MEL-2 = conditions: Homo sapiens; SK-MEL-2 (Melanoma), 48 h
SK-MEL-28 = conditions: Homo sapiens; SK-MEL-28 (Melanoma), 48 h
UACC-257 = conditions: Homo sapiens; UACC-257 (Melanoma), 48 h
OVCAR-3 = conditions: Homo sapiens; OVCAR-3 (Ovarian Cancer), 48 h
OVCAR-4 = conditions: Homo sapiens; OVCAR-4 (Ovarian Cancer), 48 h
OVCAR-5 = conditions: Homo sapiens; OVCAR-5 (Ovarian Cancer), 48 h
786-0 = conditions: Homo sapiens; 786-0 (Renal Cancer), 48 h
A498 = conditions: Homo sapiens; A498 (Renal Cancer), 48 h
ACHN = conditions: Homo sapiens; ACHN (Renal Cancer), 48 h
CAKI-1 = conditions: Homo sapiens; CAKI-1 (Renal Cancer), 48 h
RXF 393 = conditions: Homo sapiens; RXF 393 (Renal Cancer), 48 h
UO-31 = conditions: Homo sapiens; UO-31 (Renal Cancer), 48 h
PC-3 = conditions: Homo sapiens; PC-3 (Prostate Cancer), 48 h
MDA-MB-231/ATCC = conditions: Homo sapiens; MDA-MB-231/ATCC (Breast Cancer), 48 h
HS 578T = conditions: Homo sapiens; HS 578T (Breast Cancer), 48 h
BT-549 = conditions: Homo sapiens; BT-549 (Breast Cancer), 48 h
MDA-MB-468 = conditions: Homo sapiens; MDA-MB-468 (Breast Cancer), 48 h

SMILES	GI50 (CCRF-CEM)	GI50 (PRMI-8226)	GI50 (A549/ATCC)	GI50 (HOP-62)	GI50 (NCI-H226)	GI50 (HOP-92)	GI50 (NCI-H23)	GI50 (NCI-H322M)	GI50 (NCI-H460)	GI50 (NCI-H522)	GI50 (COLO 205)	GI50 (HCC-2998)	GI50 (HCT-116)	GI50 (HT29)	GI50 (SF-268)	GI50 (SNB-19)	GI50 (U251)	GI50 (LOX IMVI)	GI50 (UACC-257)	GI50 (OVCAR-3)	other results
CCn1cc(C(=O)O)c(=O)c2cc(F)c(N3CCN(S(=O)(=O)c4ccc(Cl)cc4Cl)CC3)cc21 [Compound 2a]	3030 nM	2550 nM	2890 nM	3080 nM	2600 nM	1220 nM	2330 nM	2860 nM	3130 nM	1810 nM	2440 nM	2290 nM	3560 nM	3630 nM	3860 nM	3070 nM	3300 nM	1480 nM	2650 nM	2540 nM	GI50 (HL-60(TB)): 2220 nM; GI50 (MOLT-4): 3550 nM; GI50 (MALME-3M): 1950 nM; GI50 (MDA-MB-435): 1970 nM; GI50 (SK-MEL-2): 2750 nM; GI50 (SK-MEL-28): 3210 nM; GI50 (OVCAR-4): 2580 nM; GI50 (OVCAR-5): 3430 nM; GI50 (786-0): 3190 nM; GI50 (A498): 2990 nM; GI50 (ACHN): 2620 nM; GI50 (CAKI-1): 2010 nM; GI50 (RXF 393): 2080 nM; GI50 (UO-31): 2200 nM; GI50 (PC-3): 2430 nM; GI50 (MDA-MB-231/ATCC): 1880 nM; GI50 (HS 578T): 2530 nM; GI50 (BT-549): 2640 nM; GI50 (MDA-MB-468): 1980 nM
Cc1cc(C)c(S(=O)(=O)N2CCN(c3cc4c(cc3F)c(=O)c(C(=O)O)cn4C3CC3)CC2)c(C)c1 [Compound 6b]	2800 nM	2340 nM	2230 nM	3650 nM	1230 nM	1520 nM	3410 nM	5190 nM	3040 nM	2800 nM	3400 nM	5370 nM	2980 nM	3150 nM	3960 nM	2560 nM	2890 nM	1420 nM	> 100000 nM	3170 nM	GI50 (OVCAR-4): 2370 nM; GI50 (786-0): 4080 nM; GI50 (A498): 2370 nM; GI50 (ACHN): 2460 nM; GI50 (CAKI-1): 1800 nM; GI50 (RXF 393): 2410 nM; GI50 (UO-31): 1960 nM; GI50 (MDA-MB-231/ATCC): 2030 nM; GI50 (HS 578T): 2400 nM; GI50 (BT-549): 3340 nM; GI50 (MDA-MB-468): 1970 nM
